# Results published in patent US20240368135A1 (VERTEX PHARMACEUTICALS INCORPORATED, priority 2021, published 2024).
# Target: human NaV 1.8 (Homo sapiens, UniProt Q9Y5Y9)
# Experiment: E-VIPR assay detecting and measuring NaV inhibition properties
# Assay type: cell-based
# Settings: HEK cells expressing truncated human NaV 1.8; no human serum; read-out: IC50 in the E-VIPR Assay
# How it was run: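 Membrane potential was followed by coumarin/oxonol FRET during electrical field stimulation of matrigel-seeded HEK cells carrying truncated human NaV1.8 plus KIR2.1. Dosing used 11 points, 3-fold steps, top 300 nM final, 0.625% DMSO, with or without 25% human serum.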
# human NaV 1.8, sequence (Q9Y5Y9 126-399 limits assumed): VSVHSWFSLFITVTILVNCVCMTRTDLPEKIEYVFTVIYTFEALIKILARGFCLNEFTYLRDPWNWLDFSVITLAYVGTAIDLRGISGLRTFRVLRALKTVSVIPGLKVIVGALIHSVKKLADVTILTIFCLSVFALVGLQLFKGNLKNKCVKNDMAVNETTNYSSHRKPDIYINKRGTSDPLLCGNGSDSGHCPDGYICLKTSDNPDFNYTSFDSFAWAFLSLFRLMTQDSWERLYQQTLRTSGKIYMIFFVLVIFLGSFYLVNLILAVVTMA
# human NaV 1.8, sequence (Q9Y5Y9 660-890 limits assumed): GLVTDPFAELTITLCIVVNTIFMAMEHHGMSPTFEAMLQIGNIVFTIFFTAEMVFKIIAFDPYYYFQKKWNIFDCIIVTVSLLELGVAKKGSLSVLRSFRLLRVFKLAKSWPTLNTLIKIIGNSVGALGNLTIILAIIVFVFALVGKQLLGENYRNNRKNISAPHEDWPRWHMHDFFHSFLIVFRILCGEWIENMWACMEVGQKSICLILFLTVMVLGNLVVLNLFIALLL
# human NaV 1.8, sequence (Q9Y5Y9 1148-1722 limits assumed): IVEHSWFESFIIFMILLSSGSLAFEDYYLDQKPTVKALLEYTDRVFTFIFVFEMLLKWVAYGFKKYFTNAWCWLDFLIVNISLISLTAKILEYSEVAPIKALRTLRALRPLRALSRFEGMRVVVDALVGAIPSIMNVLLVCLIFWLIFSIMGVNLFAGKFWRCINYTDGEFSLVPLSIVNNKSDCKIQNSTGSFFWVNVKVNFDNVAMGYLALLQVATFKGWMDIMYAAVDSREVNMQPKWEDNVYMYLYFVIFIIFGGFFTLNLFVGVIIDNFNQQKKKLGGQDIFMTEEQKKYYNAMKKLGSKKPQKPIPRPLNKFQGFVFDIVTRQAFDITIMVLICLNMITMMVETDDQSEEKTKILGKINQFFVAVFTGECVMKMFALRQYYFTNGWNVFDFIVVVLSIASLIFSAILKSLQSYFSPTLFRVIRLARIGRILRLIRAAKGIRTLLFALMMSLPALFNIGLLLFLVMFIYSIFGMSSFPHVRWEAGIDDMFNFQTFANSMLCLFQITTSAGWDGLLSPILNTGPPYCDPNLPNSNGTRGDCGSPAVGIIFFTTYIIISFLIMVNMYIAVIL
row,IC50,Compound
1,10 to 100 nM,"COc1c([C@H]2[C@H](C(=O)Nc3cncn3C)O[C@@](C)(C(F)(F)F)[C@H]2C)ccc(F)c1F [Compound 313, (2R,3S,4S,5R)-3-(3,4-difluoro-2-methoxyphenyl)-4,5-dimethyl-N-(1-methyl-1H-imidazol-5-yl)-5-(trifluoromethyl)-tetrahydrofuran-2-carboxamide]"
2,< 10 nM,"COc1c([C@H]2[C@H](C(=O)Nc3ccn4c(C)ncc4c3)O[C@@](C)(C(F)(F)F)[C@H]2C)ccc(F)c1F [Compound 315, (2R,3S,4S,5R)-3-(3,4-difluoro-2-methoxyphenyl)-4,5-dimethyl-N-(3-methylimidazo[1,5-a]pyridin-7-yl)-5-(trifluoromethyl)-tetrahydrofuran-2-carboxamide]"
3,< 10 nM,"COc1c([C@H]2[C@H](C(=O)Nc3ccnc(-n4ccnc4C)c3)O[C@@](C)(C(F)(F)F)[C@H]2C)ccc(F)c1F [Compound 316, (2R,3S,4S,5R)-3-(3,4-difluoro-2-methoxyphenyl)-4,5-dimethyl-N-(2-(2-methyl-1H-imidazol-1-yl)pyridin-4-yl)-5-(trifluoromethyl)-tetrahydrofuran-2-carboxamide]"
4,100 to 1000 nM,"COc1c([C@H]2[C@H](C(=O)Nc3cnc4n3CCCC4)O[C@@](C)(C(F)(F)F)[C@H]2C)ccc(F)c1F [Compound 317, (2R,3S,4S,5R)-3-(3,4-difluoro-2-methoxyphenyl)-4,5-dimethyl-N-(5,6,7,8-tetrahydroimidazo[1,2-a]pyridin-3-yl)-5-(trifluoromethyl)-tetrahydrofuran-2-carboxamide]"
5,≥ 1000 nM,"COc1c([C@H]2[C@H](C(=O)Nc3cn(C)cn3)O[C@@](C)(C(F)(F)F)[C@H]2C)ccc(F)c1F [Compound 318, (2R,3S,4S,5R)-3-(3,4-difluoro-2-methoxyphenyl)-4,5-dimethyl-N-(1-methyl-1H-imidazol-4-yl)-5-(trifluoromethyl)-tetrahydrofuran-2-carboxamide]"
6,≥ 1000 nM,"COc1c([C@H]2[C@H](C(=O)Nc3c(C)ncn3C)O[C@@](C)(C(F)(F)F)[C@H]2C)ccc(F)c1F [Compound 319, (2R,3S,4S,5R)-3-(3,4-difluoro-2-methoxyphenyl)-N-(1,4-dimethyl-1H-imidazol-5-yl)-4,5-dimethyl-5-(trifluoromethyl)-tetrahydrofuran-2-carboxamide]"
7,10 to 100 nM,"COc1c([C@H]2[C@H](C(=O)Nc3ccnc(N(C)C)c3)O[C@@](C)(C(F)(F)F)[C@H]2C)ccc(F)c1F [Compound 320, (2R,3S,4S,5R)-3-(3,4-difluoro-2-methoxyphenyl)-N-(2-(dimethylamino)-pyridin-4-yl)-4,5-dimethyl-5-(trifluoromethyl)-tetrahydrofuran-2-carboxamide]"
8,≥ 1000 nM,"COc1c([C@H]2[C@H](C(=O)Nc3cc4n(n3)CCOC4)O[C@@](C)(C(F)(F)F)[C@H]2C)ccc(F)c1F [Compound 321, (2R,3S,4S,5R)-3-(3,4-difluoro-2-methoxyphenyl)-N-(6,7-dihydro-4H-pyrazolo[5,1-c][1,4]oxazin-2-yl)-4,5-dimethyl-5-(trifluoromethyl)-tetrahydrofuran-2-carboxamide]"
9,≥ 1000 nM,"COc1c([C@H]2[C@H](C(=O)Nc3ncn(C)c3C)O[C@@](C)(C(F)(F)F)[C@H]2C)ccc(F)c1F [Compound 322, (2R,3S,4S,5R)-3-(3,4-difluoro-2-methoxyphenyl)-N-(1,5-dimethyl-1H-imidazol-4-yl)-4,5-dimethyl-5-(trifluoromethyl)-tetrahydrofuran-2-carboxamide]"
10,≥ 1000 nM,"COc1c([C@H]2[C@H](C(=O)N3Cc4ccncc4C3)O[C@@](C)(C(F)(F)F)[C@H]2C)ccc(F)c1F [Compound 323, ((2R,3S,4S,5R)-3-(3,4-difluoro-2-methoxyphenyl)-4,5-dimethyl-5-(trifluoromethyl)-tetrahydrofuran-2-yl)(1,3-dihydro-2H-pyrrolo[3,4-c]pyridin-2-yl)methanone]"
11,10 to 100 nM,"COc1c([C@H]2[C@H](C(=O)Nc3ccc(SC)nc3)O[C@@](C)(C(F)(F)F)[C@H]2C)ccc(F)c1F [Compound 324, (2R,3S,4S,5R)-3-(3,4-difluoro-2-methoxyphenyl)-4,5-dimethyl-N-(6-(methylthio)pyridin-3-yl)-5-(trifluoromethyl)-tetrahydrofuran-2-carboxamide]"
12,10 to 100 nM,"COc1c([C@H]2[C@H](C(=O)Nc3cn(C4CCOCC4)nc3C)O[C@@](C)(C(F)(F)F)[C@H]2C)ccc(F)c1F [Compound 325, (2R,3S,4S,5R)-3-(3,4-difluoro-2-methoxyphenyl)-4,5-dimethyl-N-(3-methyl-1-(tetrahydro-2H-pyran-4-yl)-1H-pyrazol-4-yl)-5-(trifluoromethyl)-tetrahydrofuran-2-carboxamide]"
13,< 10 nM,"COc1c([C@H]2[C@H](C(=O)Nc3csnc3C)O[C@@](C)(C(F)(F)F)[C@H]2C)ccc(F)c1F [Compound 327, (2R,3S,4S,5R)-3-(3,4-difluoro-2-methoxyphenyl)-4,5-dimethyl-N-(3-methylisothiazol-4-yl)-5-(trifluoromethyl)-tetrahydrofuran-2-carboxamide]"
14,< 10 nM,"COc1c([C@H]2[C@H](C(=O)Nc3ccc4cnnn4c3)O[C@@](C)(C(F)(F)F)[C@H]2C)ccc(F)c1F [Compound 329, (2R,3S,4S,5R)-N-([1,2,3]triazolo[1,5-a]pyridin-6-yl)-3-(3,4-difluoro-2-methoxyphenyl)-4,5-dimethyl-5-(trifluoromethyl)-tetrahydrofuran-2-carboxamide]"
15,< 10 nM,"COc1c([C@H]2[C@H](C(=O)Nc3cn(C[C@H](O)CO)nc3C)O[C@@](C)(C(F)(F)F)[C@H]2C)ccc(F)c1F [Compound 332, (2R,3S,4S,5R)-3-(3,4-difluoro-2-methoxy-phenyl)-N-[1-[(2S)-2,3-dihydroxypropyl]-3-methyl-pyrazol-4-yl]-4,5-dimethyl-5-(trifluoromethyl)tetrahydrofuran-2-carboxamide]"
16,< 10 nM,"COc1c([C@H]2[C@H](C(=O)Nc3ccnc(C[C@H](O)CO)c3)O[C@@](C)(C(F)(F)F)[C@H]2C)ccc(F)c1F [Compound 333, (2R,3S,4S,5R)-3-(3,4-difluoro-2-methoxy-phenyl)-N-[2-[(2S)-2,3-dihydroxypropyl]-4-pyridyl]-4,5-dimethyl-5-(trifluoromethyl)tetrahydrofuran-2-carboxamide]"
17,10 to 100 nM,"COc1c([C@H]2[C@H](C(=O)Nc3ccc(C[C@@H](O)CO)nc3)O[C@@](C)(C(F)(F)F)[C@H]2C)ccc(F)c1F [Compound 334, (2R,3S,4S,5R)-3-(3,4-difluoro-2-methoxy-phenyl)-N-[6-[(2R)-2,3-dihydroxypropyl]-3-pyridyl]-4,5-dimethyl-5-(trifluoromethyl)tetrahydrofuran-2-carboxamide]"
18,≥ 1000 nM,"COc1c([C@H]2[C@H](C(=O)Nc3cc(C[C@@H](O)CO)n(C)n3)O[C@@](C)(C(F)(F)F)[C@H]2C)ccc(F)c1F [Compound 335, (2R,3S,4S,5R)-3-(3,4-difluoro-2-methoxy-phenyl)-N-[5-[(2R)-2,3-dihydroxypropyl]-1-methyl-pyrazol-3-yl]-4,5-dimethyl-5-(trifluoromethyl)tetrahydrofuran-2-carboxamide]"
19,< 10 nM,"COc1c([C@H]2[C@H](C(=O)Nc3ccnc(C4(N)COC4)c3)O[C@@](C)(C(F)(F)F)[C@H]2C)ccc(F)c1F [Compound 340, (2R,3S,4S,5R)-N-(2-(3-aminooxetan-3-yl)pyridin-4-yl)-3-(3,4-difluoro-2-methoxyphenyl)-4,5-dimethyl-5-(trifluoromethyl)-tetrahydrofuran-2-carboxamide]"
20,< 10 nM,"COc1c([C@H]2[C@H](C(=O)Nc3cc(C4(N)COC4)ncc3F)O[C@@](C)(C(F)(F)F)[C@H]2C)ccc(F)c1F [Compound 341, (2R,3S,4S,5R)-N-(2-(3-aminooxetan-3-yl)-5-fluoropyridin-4-yl)-3-(3,4-difluoro-2-methoxyphenyl)-4,5-dimethyl-5-(trifluoromethyl)-tetrahydrofuran-2-carboxamide]"
21,< 10 nM,"CNC1(c2cc(NC(=O)[C@@H]3O[C@@](C)(C(F)(F)F)[C@@H](C)[C@H]3c3ccc(F)c(F)c3OC)ccn2)COC1 [Compound 361, (2R,3S,4S,5R)-3-(3,4-difluoro-2-methoxyphenyl)-4,5-dimethyl-N-(2-(3-(methylamino)oxetan-3-yl)pyridin-4-yl)-5-(trifluoromethyl)tetrahydrofuran-2-carboxamide]"
22,< 10 nM,"COc1c([C@H]2[C@H](C(=O)Nc3ccnc(C4(N(C)C)COC4)c3)O[C@@](C)(C(F)(F)F)[C@H]2C)ccc(F)c1F [Compound 362, (2R,3S,4S,5R)-3-(3,4-difluoro-2-methoxyphenyl)-N-(2-(3-(dimethylamino)oxetan-3-yl)pyridin-4-yl)-4,5-dimethyl-5-(trifluoromethyl)tetrahydrofuran-2-carboxamide]"
23,10 to 100 nM,"COc1c([C@H]2[C@H](C(=O)Nc3cc(C4(N(C)C)COC4)ncc3F)O[C@@](C)(C(F)(F)F)[C@H]2C)ccc(F)c1F [Compound 363, (2R,3S,4S,5R)-3-(3,4-difluoro-2-methoxyphenyl)-N-(2-(3-(dimethylamino)oxetan-3-yl)-5-fluoropyridin-4-yl)-4,5-dimethyl-5-(trifluoromethyl)tetrahydrofuran-2-carboxamide]"
24,< 10 nM,"COC[C@@H](O)Cc1cc(NC(=O)[C@@H]2O[C@@](C)(C(F)(F)F)[C@@H](C)[C@H]2c2ccc(F)c(F)c2OC)ccn1 [Compound 369, (2R,3S,4S,5R)-3-(3,4-difluoro-2-methoxyphenyl)-N-(2-((S)-2-hydroxy-3-methoxypropyl)pyridin-4-yl)-4,5-dimethyl-5-(trifluoromethyl)tetrahydrofuran-2-carboxamide]"
25,10 to 100 nM,"COc1c([C@H]2[C@H](C(=O)Nc3c[nH]nn3)O[C@@](C)(C(F)(F)F)[C@H]2C)ccc(F)c1F [Compound 372, (2R,3S,4S,5R)-3-(3,4-difluoro-2-methoxyphenyl)-4,5-dimethyl-N-(1H-1,2,3-triazol-4-yl)-5-(trifluoromethyl)tetrahydrofuran-2-carboxamide]"
